EPA's ToxRefDB 2

Tests used:
mouse [1] = details: Subchronic oral toxicity in rodents, b6c3f1, Feed, dose end: 13 week, group: systemic, systemic / in life observation / mortality / mortality
rat [2] = details: Subchronic inhalation toxicity, long evans, Whole-Body, dose end: 58 day, group: systemic, systemic / in life observation / clinical signs / abnormal movements
rat [3] = details: Subchronic oral toxicity in rodents, long evans, Feed, dose end: 96 day, group: systemic, systemic / in life observation / body weight / body weight gain + systemic / in life observation / food consumption / food efficiency
rat [4] = details: Subchronic oral toxicity in rodents, fischer, Feed, dose end: 13 week, group: systemic, systemic / in life observation / body weight / body weight gain
mouse [5] = details: Carcinogenicity; b6c3f1; Oral; Feed; dose end: 103 week; group: systemic; systemic / in life observation / clinical signs / alopecia + systemic / in life observation / clinical signs / aggressive behavior
rat [6] = details: Subchronic oral toxicity in rodents, sprague dawley, Feed, dose end: 90 day, group: systemic, systemic / in life observation / body weight / body weight + systemic / in life observation / body weight / body weight gain + systemic / in…
rat [7] = details: Combined chronic toxicity/carcinogenicity; sprague dawley; Oral; Feed; dose end: 104 week; group: systemic; systemic / in life observation / clinical signs / convulsions
rat [8] = details: Sub-acute repeat dose toxicity, sprague dawley, Oral, Gavage/Intubation, dose end: 4 week, group: systemic
rabbit [9] = details: Prenatal developmental toxicity study, himalayan, Oral, Gavage/Intubation, dose end: 18 GD
rabbit [10] = details: Prenatal developmental toxicity study; himalayan; Oral; Gavage/Intubation; dose end: 18 GD; group: maternal; systemic / in life observation / body weight / body weight gain + systemic / in life observation / food consumption / food consumption
rat [11] = details: Prenatal developmental toxicity study, sprague dawley, Oral, Gavage/Intubation, dose end: 18 GD
mouse [12] = details: Subchronic oral toxicity in rodents, cd1, Gavage/Intubation, dose end: 90 day, group: systemic
dog = details: Sub-acute repeat dose toxicity, beagle, Oral, Gavage/Intubation, dose end: 4 week, group: systemic
rat [13] = details: Prenatal developmental toxicity study, sprague dawley, Oral, Gavage/Intubation, dose end: 18 GD; remark: listed apart in the source
[14] = systemic / hematology / hematocrit (hct) / hematocrit (hct) + systemic / hematology / hemoglobin (hgb) / hemoglobin (hgb)
[15] = systemic / hematology / hematocrit (hct) / hematocrit (hct) + systemic / hematology / hemoglobin (hgb) / hemoglobin (hgb) + systemic / in …
[16] = group: developmental, developmental / developmental malformation / bone / delayed ossification + developmental / developmental malformation / lung / [other]
[17] = group: developmental, developmental / developmental malformation / bone / delayed ossification + developmental / developmental malformation / lung / [other] + …
[18] = group: maternal, systemic / in life observation / body weight / body weight + systemic / in life observation / food consumption / food consumption
[19] = group: developmental, systemic / in life observation / body weight / fetal weight
[20] = systemic / in life observation / body weight / body weight + systemic / organ weight / brain / relative to body weight + systemic / organ …
[21] = systemic / in life observation / body weight / body weight + systemic / organ weight / liver / relative to body weight + systemic / …
[22] = systemic / clinical chemistry / alkaline phosphatase (alp/alk) / alkaline phosphatase (alp/alk) + systemic / hematology / blood clotting / …
[23] = systemic / hematology / blood clotting / blood clotting - prothrombin time + systemic / hematology / reticulocyte / reticulocyte
[24] = group: developmental, developmental / developmental malformation / bone / incomplete ossification
[25] = group: maternal, systemic / in life observation / body weight / body weight + systemic / in life observation / food consumption / food consumption + systemic…

## COC(=O)c1ccc(C(=O)OC)cc1 [Dimethyl terephthalate]
Mouse [1]
  LEL: 375 mg/kg/day
  LOAEL: > 3000 mg/kg/day
  NEL: 262 mg/kg/day
  NOAEL: ≥ 3000 mg/kg/day
Rat [2]
  LEL: 4 mg/kg/day
  LOAEL: > 4 mg/kg/day
  NEL: 0.7 mg/kg/day
  NOAEL: ≥ 4 mg/kg/day
Rat [3]
  LEL: 500 mg/kg/day
  LOAEL: > 500 mg/kg/day
  NEL: 250 mg/kg/day
  NOAEL: ≥ 500 mg/kg/day
Rat [4]
  LEL: 500 mg/kg/day
  LOAEL: 500 mg/kg/day
  NEL: 250 mg/kg/day
  NOAEL: 250 mg/kg/day
Mouse [5]
  LEL: 375 mg/kg/day
  LOAEL: > 750 mg/kg/day
  NEL: < 375 mg/kg/day
  NOAEL: ≥ 750 mg/kg/day

## N#Cc1nn(-c2c(Cl)cc(C(F)(F)F)cc2Cl)c(N)c1C(F)(F)F [Fipronil-desulfinyl]
Rat [6]
  LEL: 0.594 mg/kg/day
  LOAEL: 0.594 mg/kg/day
  NEL: 0.177 mg/kg/day
  NOAEL: 0.177 mg/kg/day
Rat [7]
  LEL: 0.032 mg/kg/day
  LOAEL: 0.032 mg/kg/day
  NEL: < 0.032 mg/kg/day
  NOAEL: < 0.032 mg/kg/day

## OC12N=C(c3ccccc3)SC1Cc1cc(Cl)ccc12 (stereo not drawn) [HMR1426]
Rat [8]; [14]
  LEL: 31.5 mg/kg/day
  NEL: < 31.5 mg/kg/day
Rat [8]; [15]
  LOAEL: 315 mg/kg/day
  NOAEL: 31.5 mg/kg/day
Rabbit [9]; [16]
  LEL: 62.5 mg/kg/day
  NEL: < 62.5 mg/kg/day
Rabbit [9]; [17]
  LOAEL: > 1000 mg/kg/day
  NOAEL: ≥ 1000 mg/kg/day
Rabbit [9]; [18]
  LEL: 62.5 mg/kg/day
  LOAEL: > 1000 mg/kg/day
  NEL: < 62.5 mg/kg/day
  NOAEL: ≥ 1000 mg/kg/day
Rabbit [10]
  LEL: 500 mg/kg/day
  LOAEL: > 1000 mg/kg/day
  NEL: < 500 mg/kg/day
  NOAEL: ≥ 1000 mg/kg/day
Rat [11]; [19]
  LEL: 1000 mg/kg/day
  LOAEL: 1000 mg/kg/day
  NEL: 500 mg/kg/day
  NOAEL: 500 mg/kg/day
Rat [11]; [18]
  LEL: 500 mg/kg/day
  LOAEL: 500 mg/kg/day
  NEL: < 500 mg/kg/day
  NOAEL: < 500 mg/kg/day
Mouse [12]; [20]
  LOAEL: > 1600 mg/kg/day
  NOAEL: ≥ 1600 mg/kg/day
Mouse [12]; [21]
  LEL: 400 mg/kg/day
  NEL: < 400 mg/kg/day
dog; [22]
  LOAEL: > 630 mg/kg/day
  NOAEL: ≥ 630 mg/kg/day
dog; [23]
  LEL: 63 mg/kg/day
  NEL: < 63 mg/kg/day
Rat [13]; [24]
  LEL: 315 mg/kg/day
  LOAEL: 315 mg/kg/day
  NEL: 100 mg/kg/day
  NOAEL: 100 mg/kg/day
Rat [13]; [18]
  LEL: 100 mg/kg/day
  NEL: < 100 mg/kg/day
Rat [13]; [25]
  LOAEL: 315 mg/kg/day
  NOAEL: 100 mg/kg/day
